The values that follow come from patent US10363284B2, “β-hairpin peptidomimetics” (POLYPHOR AG, priority 2012, dated 2019).

Positions of bridges follow the written chain, without caps; N, C: chain ends. Non-standard residues stand in square brackets, D forms with d. Residues, ends and D or L forms follow the SMILES beside them. dLys(iPr) = CC(C)NCCCC[C@@H](N)C(=O)O; Lys(iPr) = CC(C)NCCCC[C@H](N)C(=O)O; Orn(iPr) = CC(C)NCCC[C@H](N)C(=O)O; Ac3c = NC1(C(=O)O)CC1

This experiment addresses T1, CXCR4 receptor (Homo sapiens, UniProt P61073).
T1 construct: CXCR4 natively expressing non-adherent cells; endogenous in cells; host or cells: Namalwa cells (ATCC CRL-1432)
Put plainly: Chemotactic assay (cell migration assay), Namalwa cells, SDF-1 gradient. The experiment is classed as cell-based. As for the experimental part: Namalwa cells (CXCR4 natively expressing non-adherent cells, ATCC CRL-1432) were cultured in RPM11640 plus 10% FBS, and pen/strept. HELA cells were maintained in RPMI1640 plus 10% FBS, pen/strept and 2 mM L-glutamine. Cos-7 cells were grown in DMEM medium with […] glucose supplemented with 10% FCS, pen/strept and 2 mM L-glutamine. All cell lines were grown at 37° C. at 5% CO2. Cell media, media supplements, PBS-buffer, HEPES, antibiotic/antimycotic, pen/strept, non essential amino acid, L-glutamine, β-mercaptoethanol and sera were purchased from Gibco (Pailsey, UK). All fine chemicals were supplied by Merck (Darmstadt, Germany).
The chemotactic response of Namalwa cells (ATCC CRL-1432) to a gradient of stromal cell-derived factor 1α (SDF-1) was measured using a modified Boyden chamber chemotaxis system (ChemoTx; Neuroprobe). […] Migrated cells were transferred using a “funnel” adaptor to a receiving 96-well plate and the cell number was determined by using the CyQuant™ NF cell proliferation assay (Invitrogen) based on the measurement of cellular DNA content via fluorescent dye binding. […] After incubation for 0.5 h at room temperature the plate was sealed and the fluorescence intensity of each sample was measured by using a Wallac 1420 VICTOR^2™ plate reader (PerkinElmer) with excitation at 485 nm and emission detection at 535 nm. […]

T1 sequence (P61073 whole entry): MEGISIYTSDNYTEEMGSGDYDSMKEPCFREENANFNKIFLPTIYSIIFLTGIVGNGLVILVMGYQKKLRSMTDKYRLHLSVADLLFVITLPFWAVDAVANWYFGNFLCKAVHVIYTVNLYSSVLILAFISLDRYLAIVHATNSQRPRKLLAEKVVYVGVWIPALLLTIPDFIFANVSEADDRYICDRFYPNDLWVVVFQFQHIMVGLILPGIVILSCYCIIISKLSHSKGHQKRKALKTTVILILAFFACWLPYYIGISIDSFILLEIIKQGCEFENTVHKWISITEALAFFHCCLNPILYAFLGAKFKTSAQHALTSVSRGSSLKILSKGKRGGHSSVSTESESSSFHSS

The term IC50 denotes the concentration at which inhibition is half-maximal. Take `CC(C)NCCCC[C@@H]1NC(=O)[C@H](CCC(N)=O)NC(=O)[C@H](Cc2ccc(O)cc2)NC(=O)[C@@H]2CSSC[C@H](NC(=O)[C@H](Cc3ccc(O)cc3)NC(=O)[C@H](Cc3c[nH]cn3)NC(=O)[C@H](Cc3ccc(O)cc3)NC(=O)[C@@H]3CCCN3C(=O)[C@@H](CCCCNC(C)C)NC1=O)C(=O)N[C@@H](CO)C(=O)N[C@@H](C)C(=O)N1CCC[C@@H]1C(=O)N[C@@H](CCCNC(C)C)C(=O)N[C@@H](CCCNC(=N)N)C(=O)N[C@@H](Cc1ccc(O)cc1)C(=O)N2` [Ex. 1, cyclo(-Tyr^1-His^2-Tyr^3-Cys^4-Ser^5-Ala^6-^DPro^7-Orn(iPr)^8-Arg^9-Tyr^10-Cys^11-Tyr^12-Gln^13-Lys(iPr)^14-^DLys(iPr)^15-Pro^16-), disulfide bond between Cys^4 and Cys^11] (cyclo(A[dP][Orn(iPr)]RYCYQ[Lys(iPr)][dLys(iPr)]PYHYCS); disulfide 6-15): the IC50 worked out at 0.17 ± 0.1 nM.

Consider `CC(C)NCCCC[C@@H]1NC(=O)[C@H](CCC(N)=O)NC(=O)[C@H](Cc2ccc(O)cc2)NC(=O)[C@@H]2CSSC[C@H](NC(=O)[C@H](Cc3ccc(O)cc3)NC(=O)[C@H](Cc3c[nH]cn3)NC(=O)[C@H](Cc3ccc(O)cc3)NC(=O)[C@@H]3CCCN3C(=O)[C@H]3CCCN3C1=O)C(=O)N[C@@H](CO)C(=O)NC1(CC1)C(=O)N1CCC[C@@H]1C(=O)N[C@@H](CCCNC(C)C)C(=O)N[C@@H](CCCNC(=N)N)C(=O)N[C@@H](Cc1ccc(O)cc1)C(=O)N2` [Ex. 2, cyclo(-Tyr^1-His^2-Tyr^3-Cys^4-Ser^5-Acc^6-^DPro^7-Orn(iPr)^8-Arg^9-Tyr^10-Cys^11-Tyr^12-Gln^13-Lys(iPr)^14-^DPro^15-Pro^16-), disulfide bond between Cys^4 and Cys^11] (cyclo(YHYCS[Ac3c][dP][Orn(iPr)]RYCYQ[Lys(iPr)][dP]P); disulfide 4-11), for which the IC50 was 0.32 ± 0.1 nM.
